How the values were obtained:
[1] = test system: T24 cells; type: cell-based, human
[2] = Binding of Fe^3+ to BCG: zeta potential (Zeta Sizer Ultra); type: physicochemical; details: in water, 0.04 mg/mL BCG, 100 uM Fe(NO3)3, measured immediately
Procedure: Zeta potential was measured immediately using a Zeta Sizer Ultra (Malvern).

[3] = test system: CT26.WT (mouse colon adenocarcinoma) tumors; parameters: species or system male BALB/C mice; details: in vivo

Compound | cell kill [1] [%] | zeta potential [2] | survival [3] | tumor growth [3]
O=[N+]([O-])[O-].O=[N+]([O-])[O-].O=[N+]([O-])[O-].[Fe+3] [Fe^3+, Fe(NO3)3] | 1.4 | not detectable |  | 
Ru(4,4′-dimethyl-2,2′-bipyridine)2(2-(2′,2″:5″,2′″-terthiophene)-imidazo[4,5-f][1,10]phenanthroline) [RUVIDAR] |  |  | significantly increases survival, but the effect size is small | tumor growth suppression
